Article PMC1950546 (Nucleic Acids Research, 2007)
Where a SMILES comes first, the peptide text is derived from it.

Experiments:
PrrC = conditions: stated in the introduction; cited from earlier work
[1] = molecular target: T1, PrrC anticodon nuclease (ACNase), His6-tagged D222E mutant (Escherichia coli, UniProt P17223, D222E); assay: ACNase assay: inhibition of PrrC-catalyzed cleavage of tRNA^Lys or ASL analogs; assay type: biochemical
T1 sequence (P17223 1-396 D222E): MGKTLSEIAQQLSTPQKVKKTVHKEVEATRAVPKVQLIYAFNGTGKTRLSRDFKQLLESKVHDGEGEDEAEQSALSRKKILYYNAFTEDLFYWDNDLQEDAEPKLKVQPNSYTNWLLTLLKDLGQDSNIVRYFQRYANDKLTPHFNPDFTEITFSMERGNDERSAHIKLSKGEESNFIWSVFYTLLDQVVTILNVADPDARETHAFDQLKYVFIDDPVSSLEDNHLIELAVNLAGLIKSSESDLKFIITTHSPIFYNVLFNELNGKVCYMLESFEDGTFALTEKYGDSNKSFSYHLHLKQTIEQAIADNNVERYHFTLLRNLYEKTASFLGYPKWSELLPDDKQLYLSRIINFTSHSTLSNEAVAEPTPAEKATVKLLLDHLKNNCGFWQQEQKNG

SMILES	Affinity for PrrC (range) (PrrC)	IC50 [1] [µM]
Nc1ncnc2c1ncn2[C@@H]1O[C@H](COP(=O)(O)OP(=O)(O)OP(=O)(O)O)[C@@H](O)[C@H]1O [ATP]	mM-range	
Nc1nc2c(ncn2[C@@H]2O[C@H](COP(=O)(O)OP(=O)(O)OP(=O)(O)O)[C@@H](O)[C@H]2O)c(=O)[nH]1 [GTP]	mM-range	
CC(=O)N[C@@H](CCCCN)C(=O)N[C@@H](Cc1ccc(O)cc1)C(=O)NCC(=O)N[C@@H](CC(=O)O)C(=O)N[C@@H](CO)C(=O)N[C@@H](CC(N)=O)C(=O)N[C@@H](CCCCN)C(=O)N[C@@H](CO)C(=O)N[C@@H](Cc1ccccc1)C(=O)N[C@@H](CO)C(=O)N[C@@H](Cc1ccc(O)cc1)C(N)=O [LARP, Ac-KYGDSNKSFSY-NH2] (Ac-KYGDSNKSFSY-NH2)		~100
